Laboratory results taken from patent EP4578855A1, “PROLYL HYDROXYLASE INHIBITOR AND USE THEREOF” (Suzhong Pharmaceutical Group Co., Ltd., priority 2022, dated 2024).
Several values for one entry are separate records, joined by “and”; a condition that tells them apart may be missing. Equal values may be shown once.

Experiments:
PHD2 enzyme = molecular target: T1, PHD2 enzyme (Homo sapiens, UniProt Q9GZT9); assay: Detection of PHD2 enzyme activity inhibition (FITC-HIF1α tracer, mP read-out); format: biochemical; conditions: test concentration from 10 µM, diluted 3 times into 10 concentrations; read-out: IC50
T1 construct: purchased Active motif
T1 sequence (Q9GZT9 whole entry, species assumed): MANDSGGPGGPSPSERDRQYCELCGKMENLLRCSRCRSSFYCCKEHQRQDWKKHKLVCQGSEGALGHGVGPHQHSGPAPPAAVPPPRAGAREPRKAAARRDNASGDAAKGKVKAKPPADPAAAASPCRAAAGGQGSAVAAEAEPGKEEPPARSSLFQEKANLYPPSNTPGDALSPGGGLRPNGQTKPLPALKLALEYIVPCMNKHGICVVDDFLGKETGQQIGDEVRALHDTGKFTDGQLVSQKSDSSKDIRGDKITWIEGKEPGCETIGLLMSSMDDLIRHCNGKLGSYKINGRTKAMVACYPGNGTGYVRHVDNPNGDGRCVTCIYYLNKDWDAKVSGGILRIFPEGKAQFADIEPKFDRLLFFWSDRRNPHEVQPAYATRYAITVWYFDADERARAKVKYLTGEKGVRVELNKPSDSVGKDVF
Protocol: (1) A 1×Assay buffer was prepared. […] 100 nL of 100% DMSO was added into a negative control well and a positive control well respectively. (3) An enzyme solution with 2 times final concentration was prepared with the 1×Assay buffer. (4) 5 µL of the enzyme solution with 2 times final concentration was added into a compound well and the positive control well respectively. (5) 5 µL of the 1 ×Assay buffer was added into the negative control well. (6) The 384-well plate was centrifuged at 1000 rpm for 30 seconds, oscillated and mixed evenly, and then incubated for 15 minutes. (7) A tracer solution with 2 times final concentration was prepared with the 1×Assay buffer, and 5.0 µL of the tracer solution with 2 times final concentration was added to start the reaction.

[1] = system: human hepatocarcinoma cell line Hep3B; assay: In-vitro erythropoietin (EPO)-inducing activity experiment (EPO ELISA, OD450); format: cell-based; conditions: Hep3B cells, incubated 24 hours at 37°C
Protocol: In-vitro erythropoietin (EPO)-inducing activities of the compounds in Embodiments 10 to 12 were evaluated by using a human hepatocarcinoma cell line Hep3B (ATCC). Hep3B cells were cultured in an EMEM medium (Eagle's Minimum Essential Medium) at 37°C in the presence of 10% fetal bovine serum (FBS). Experimental steps were as follows: • (1) Cell preparation: the cells were inoculated in a 96-well plate, and cell plating was carried out according to an amount of 100 µL per well based on 2*10~4 per well. • (2) Preparation of compound concentration gradient: 100 µM, 20 µM, 2-parallel well detection. A solution with 200 times final concentration was prepared in a 96-well plate, the compound was diluted 200/3 times by using a cell culture medium, and then 50 µL of the compound was sucked for drug administration to the cells. 50 µL of DMSO-containing culture solution was added into a negative control well to make a final concentration contain 5 ‰ DMSO, and 50 µL of positive compound with the highest concentration was added into a positive control well to incubate the cells at 37°C for 24 hours. • (3) The reaction plate was washed twice with 1X Wash Buffer according to about 400 µL per well. • (4) 100 µL of diluted standard (comprising a standard blank control) was added into an appropriate well. • (5) 50 µL of sample and 50 µL of Sample Diluent were added into a sample well. • (6) 50 µL of 1X Biotin Conjugated Antibody were added into all wells to incubate the cells at room temperature for 1 hour. • (7) The reaction plate was washed with 1X Wash Buffer for 6 times according to about 400 µL per well. • (8) 100 µL of 1X Streptavidin-HRP was added in to each well to incubate the cells at room temperature for 15 minutes. • (9) The reaction plate was washed with 1X Wash Buffer for 6 times according to about 400 µL per well. • (10) 100 µL of TMB Substrate Solution was added into each well to incubate the cells at room temperature for 10 minutes. • (11) 100 µL of Stop Solution was added into each well. • (12) OD450 was read by EnSight.
The EPO-inducing activities of the compounds were expressed as the concentration for 50% of maximal effect (EC50).

EPO (erythropoietin) [2] = assay: Pharmacological evaluation: influence of continuous administration on EPO level; format: in vivo, SD rats; conditions: for EPO levels in serum of the rats: after 14 days of administration; for EPO levels in plasma of the rats: after administration, compared with the group of positive drug Enarodustat; for EPO level after 14 days of administration: individual rats 1-6; for EPO level after 14 days of administration / EPO level after 14 days of administration, Mean: 0.3 mg/mL, 10 mL/kg, once a day for 14 consecutive days, blood 4 hours after the drug on the 14th day, 2904.6 pg/mL was an upper limit of measurement; for EPO level after 14 days of administration, Mean: mean of 6 rats
Protocol: This experiment was intended to evaluate an influence of continuous administration of the compounds prepared in Embodiments 12, 13 and 14 on EPO (erythropoietin) in SD rats.
• Line: SD (Sprague Dawley) • Weeks of age and weight: 8 weeks, weight 200 g to 220 g • Sex: male • Animal source: Beijing Vital River Laboratory Animal Technology Co., Ltd.
• Positive drug: Enarodustat • Description: commercialized drugs approved for marketing in Japan • Specification and content: 2 mg JTZ-951(Enarodustat), 140 capsules/box
After a week of adaptive feeding, SD rats were randomly divided into 3 groups, 6 rats in each group, which were namely a blank group, a positive drug group (Enarodustat) and a group of compound in Embodiment 12. An Enarodustat tablet was crushed by a mortar, then quantitatively added with 0.5% methyl cellulose, and magnetically stirred and mixed evenly; and the compound prepared in Embodiment 12 was weighed, then quantitatively added with 0.5% methyl cellulose, and magnetically stirred and mixed evenly. […] The drug was given once a day for 14 consecutive days, and blood was taken to measure an EPO level 4 hours after the drug was given on the 14th day.

EPO (erythropoietin) [3] = assay: as above; format: in vivo, SD rats; conditions: SD rat, continuous chronic administration, in words
[4] = Pharmacokinetic evaluation after intravenous injection or intragastric administration, plasma LC-MS/MS; format: in vivo, SD rats
Text: After the compounds were given to SD rats by intravenous injection or intragastric administration, concentrations of related compounds in plasma were detected by an LC-MS/MS method, and pharmacokinetics and absolute bioavailability of the compounds prepared in Embodiments 13 and 14 in the rats were preliminarily evaluated.
2. Line: Sprague Dawley rats, sex: male, weight: 200 g to 250 g
Pharmacokinetic characteristics of rodents after intravenous injection and oral administration of the compounds were tested by a standard scheme. In the experiment, a candidate compound was prepared into a clear solution, and given to the rats by single intravenous injection and intragastric administration. A solvent for intravenous injection was a certain proportion of N,N-dimethylacetamide (DMA) and 10% Solutol HS15 solution, and a solvent for oral administration was a certain proportion of sodium carboxymethyl cellulose (CMC) suspension. 5 minutes, 15 minutes, 30 minutes, 1 hour, 2 hours, 4 hours, 6 hours, 8 hours, 10 hours and 24 hours after drug administration, blood samples of the animals were respectively collected into K2EDTA anticoagulation tubes, which were temporarily stored on ice until centrifugation.

[5] = Subacute toxicity test, 14 consecutive days; format: in vivo; conditions: SD rats, 10 mg/kg once a day for 14 consecutive days, in words
Text: A proper amount of the compound in Embodiment 13 and a proper amount of the compound in Embodiment 14 were weighed by a balance and respectively placed into proper glass bottles, then DMSO, Solutol HS-15 and 0.9% physiological saline (in a ratio of v: v: v = 5%: 10%: 85%) were sequentially added into the glass bottles, and vortexed and stirred, and a drug dissolution condition was continuously concerned in the stirring process until the compounds were completely dissolved/suspended. Finally, drug solutions of the compound in Embodiment 13 and the compound in Embodiment 14 with a concentration of 0.67 mg/mL were prepared for current use.
An animal room was well ventilated, equipped with an air-conditioner, kept at a temperature of 20°C and 25°C and a humidity of 40% to 70%, and in light and dark conditions for 12 hours respectively, and the animals could eat and drink freely. SD rats with good physical signs could be selected for this experiment after being adaptively fed for at least 3 days before administration. Table 23 Source and number of experimental animals
Any operation on the experimental animals in this experiment met the requirements of the "Regulations for the Administration of Affairs Concerning Experimental Animals" issued by the Ministry of Science and Technology of the People's Republic of China. In this experiment, a solvent control group, an administration group of compound in Embodiment 13 and an administration group of compound in Embodiment 14 were set up. Administration dosages of the administration group of compound in Embodiment 13 and the administration group of compound in Embodiment 14 were (10 mg/kg) once a day for 14 consecutive days, while the same amount of blank solvent was given to the blank control group, and administration volumes were all 15 mL/kg. After each administration, symptoms and degrees of toxic reaction of the animals were observed. Recovery observation was carried out for 7 days after the last administration. […]
During the experiment, experimenters and veterinarians should observe physical signs and health conditions of the experimental animals continuously. Any abnormal manifestations of the animals, such as pain, depression and decreased activity should be recorded in original records of the experiment. […]
During the experiment, all animals were observed beside cages at least twice a day, and observed continuously for 2 hours after the drug administration. During the drug administration, if the animals had serious side effects or died, observation results should be recorded in a corresponding form. […]
The animals should be weighed before daily drug administration for 14 consecutive days, and the weights were recorded in a corresponding form. Food intakes of the experimental animals were detected during the experiment. […]

[6] = SD rats, in words, compared with Enarodustat in the table
[7] = male SD rats, route and dose not given

Row | SMILES | IC50 (PHD2 enzyme) | EC50 ([1]; Homo sapiens, Hep3B, 24 h) | EPO level (EPO (erythropoietin) [2]; SD rat, continuous chronic administration, in words) | EPO levels in serum of the rats (EPO (erythropoietin) [2]; in words) | EPO levels in plasma of the rats (EPO (erythropoietin) [2]; in words) | EPO level after 14 days of administration (EPO (erythropoietin) [2]) | EPO level after 14 days of administration, Mean (EPO (erythropoietin) [2]) | hemoglobin level (EPO (erythropoietin) [3]) | EC50 [1] | half-lives [4, 6] | in-vivo exposure [4, 6] | Bioavailability F ([4]; male SD rats, intragastric vs intravenous) | Concentration integral AUC [4, 7] | Half-life period T1/2 [4, 7] | toxicities ([5]; compared with Enarodustat) | gastrointestinal findings [5]
1 | O=C(O)CNC(=O)c1c(O)cc(C2CCc3ccccc3C2)n2ncnc12 (centres unmarked) [Compound in Embodiment 12, [(7-hydroxy-5-(1,2,3,4-tetrahydronaphthalene-2-yl)-[1,2,4]triazolo[1,5-a]pyridine-8-carbonyl)amino]acetic acid] | 0.0343 µM | 6.79 µM | significantly increase | increased significantly | significantly higher | 2649.3 pg/mL and ≥ 2904.6 pg/mL (4×) and 2882.6 pg/mL | 2858.4 pg/mL | significantly increase | – | – | – | – | – | – | – | –
2 | O=C(O)CNC(=O)c1c(O)cc(C2CCc3ccccc3C2)n2ncnc12 (single isomer, unassigned) [Compound in Embodiment 14, [(7-hydroxy-5-(1,2,3,4-tetrahydronaphthalene-2-yl)-[1,2,4]triazolo[1,5-a]pyridine-8-carbonyl)amino]acetic acid] | – | – | – | increased significantly | significantly higher | 2279.1 pg/mL and 2095.6 pg/mL and 1982.7 pg/mL and 1943.6 pg/mL and 2038.9 pg/mL and 2137.6 pg/mL | 2079.6 pg/mL | – | 4.16 µM | obviously longer | higher | 31.3% | 15740 ng·h/mL | 2.43 h | lower than that of Enarodustat | no obvious gastrointestinal necrosis, and bleeding spots or flatulence in a black stomach part
